Measurements from ChEMBL document CHEMBL3217538, “Antimycobacterial activity of spirooxindolo-pyrrolidine, pyrrolizine and pyrrolothiazole hybrids obtained by a three-component regio- and stereoselective 1,3-dipolar cycloaddition” (2011).
In brackets after ≈: the same amount, converted by molar mass.

Columns and labels:
[1] = system: Mycobacterium tuberculosis; test: Antimycobacterial activity against Mycobacterium tuberculosis H37Rv by agar dilution method; format: functional
[2] = system: Mycobacterium tuberculosis; test: Ratio of pyrazinamide MIC99 to compound MIC99 for Mycobacterium tuberculosis H37Rv; format: functional

Structure (SMILES)	MIC99 [1] [µM]	Ratio [2]
COc1ccc(C2C([N+](=O)[O-])C(c3ccccc3)N[C@@]23C(=O)Nc2ccccc23)cc1 (stereo partly drawn)	> 60.2	
O=C1Nc2ccccc2[C@]12NC(c1ccccc1)C([N+](=O)[O-])C2c1ccc(Cl)cc1 (stereo partly drawn)	29.8 (≈ 12.5 µg/mL)	1.7
O=C1Nc2ccccc2[C@]12NC(c1ccccc1)C([N+](=O)[O-])C2c1cccc([N+](=O)[O-])c1 (stereo partly drawn)	29 (≈ 12.5 µg/mL)	1.75
O=C1Nc2ccccc2[C@]12NC(c1ccccc1)C([N+](=O)[O-])C2c1cccc(Cl)c1 (stereo partly drawn)	14.9 (≈ 6.26 µg/mL)	3.4
O=C1Nc2ccccc2[C@]12NC(c1ccccc1)C([N+](=O)[O-])C2c1ccc(F)cc1 (stereo partly drawn)	31 (≈ 12.5 µg/mL)	1.6
O=C1Nc2ccccc2[C@]12NC(c1ccccc1)C([N+](=O)[O-])C2c1ccccc1 (stereo partly drawn)	> 64.9	
Cc1ccc(C2C([N+](=O)[O-])C(c3ccccc3)N[C@@]23C(=O)Nc2ccccc23)cc1 (stereo partly drawn)	> 62.6	
O=C1Nc2ccccc2[C@]12NC(c1ccccc1)C([N+](=O)[O-])C2c1ccc(Br)cc1 (stereo partly drawn)	26.9 (≈ 12.5 µg/mL)	1.9
COc1ccc(OC)c(C2C([N+](=O)[O-])C(c3ccccc3)N[C@@]23C(=O)Nc2ccccc23)c1 (stereo partly drawn)	> 56.1	
COc1ccc(C2C([N+](=O)[O-])C3CCCN3[C@@]23C(=O)Nc2ccccc23)cc1 (stereo partly drawn)	65.9 (≈ 25 µg/mL)	
O=C1Nc2ccccc2[C@@]12C(c1ccc(Cl)cc1)C([N+](=O)[O-])C1CCCN12 (stereo partly drawn)	32.6 (≈ 12.5 µg/mL)	1.6
O=C1Nc2ccccc2[C@@]12C(c1cccc([N+](=O)[O-])c1)C([N+](=O)[O-])C1CCCN12 (stereo partly drawn)	63.4 (≈ 25 µg/mL)	
O=C1Nc2ccccc2[C@@]12C(c1cccc(Cl)c1)C([N+](=O)[O-])C1CCCN12 (stereo partly drawn)	32.6 (≈ 12.5 µg/mL)	1.6
O=C1Nc2ccccc2[C@@]12C(c1ccc(F)cc1)C([N+](=O)[O-])C1CCCN12 (stereo partly drawn)	68.1 (≈ 25 µg/mL)	
O=C1Nc2ccccc2[C@@]12C(c1ccccc1)C([N+](=O)[O-])C1CCCN12 (stereo partly drawn)	71.6 (≈ 25 µg/mL)	
Cc1ccc(C2C([N+](=O)[O-])C3CCCN3[C@@]23C(=O)Nc2ccccc23)cc1 (stereo partly drawn)	68.8 (≈ 25 µg/mL)	
O=C1Nc2ccccc2[C@@]12C(c1ccc(Br)cc1)C([N+](=O)[O-])C1CCCN12 (stereo partly drawn)	58.4 (≈ 25 µg/mL)	
COc1ccc(OC)c(C2C([N+](=O)[O-])C3CCCN3[C@@]23C(=O)Nc2ccccc23)c1 (stereo partly drawn)	> 61.1	
COc1cc(C2C([N+](=O)[O-])C3CCCN3[C@@]23C(=O)Nc2ccccc23)cc(OC)c1OC (stereo partly drawn)	> 56.9	
COc1ccc(C2C([N+](=O)[O-])C3CSCN3[C@@]23C(=O)Nc2ccccc23)cc1 (stereo partly drawn)	62.9 (≈ 25 µg/mL)	
O=C1Nc2ccccc2[C@@]12C(c1ccc(Cl)cc1)C([N+](=O)[O-])C1CSCN12 (stereo partly drawn)	15.5 (≈ 6.23 µg/mL)	3.3
O=C1Nc2ccccc2[C@@]12C(c1cccc([N+](=O)[O-])c1)C([N+](=O)[O-])C1CSCN12 (stereo partly drawn)	7.6 (≈ 3.13 µg/mL)	6.7
O=C1Nc2ccccc2[C@@]12C(c1cccc(Cl)c1)C([N+](=O)[O-])C1CSCN12 (stereo partly drawn)	7.8 (≈ 3.13 µg/mL)	6.5
O=C1Nc2ccccc2[C@@]12C(c1ccc(F)cc1)C([N+](=O)[O-])C1CSCN12 (stereo partly drawn)	8.2 (≈ 3.16 µg/mL)	6.2
CC[C@@H](CO)NCCN[C@@H](CC)CO [ETHAMBUTOL]	7.6 (≈ 1.55 µg/mL)	
NNC(=O)c1ccncc1 [ISONIAZID]	0.4 (≈ 0.0549 µg/mL)	
NC(=O)c1cnccn1 [PYRAZINAMIDE]	50.1 (≈ 6.17 µg/mL)	
